Structures can show the parent of a compound that is named as a salt. Where two headings read alike, the source gives them in different places.
Tested on: behaviors of compound-treated mice
Experiment: Neuropharmacological Assay (SmartCube)
Type: in vivo
Details: for minimal effective dose: Mus musculus, ip, 0.25 h, dose having 50% or more total activity in SmartCube, read-out: MED (minimal effective dose)
Method in brief: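 Mice dosed i.p. 15 min before testing, with compound in N-methyl-2-pyrrolidone/PEG/propylene glycol, were video-recorded and algorithmically compared with reference-drug behavioral signatures. This gave class-match probabilities (antidepressant, anxiolytic, etc.) at the most efficacious of 3 doses. MED was defined as the dose with ≥50% total activity, usually tested across 0.3–30 mpk.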

[1] = i.p. 15 min before behavioral test, most efficacious dose(s) of 3 doses
[2] = SmartCube, i.p. 15 min before test, most efficacious dose(s)

Row | SMILES | minimal effective dose (i.p.) | AD: ADHD (probability that activity matches class) [1] | AG: analgesic (probability that activity matches class) [1] | AX: anxiolytic (probability that activity matches class) [1] | CE: cognitive enhancer (probability that activity matches class) [1] | DP: anti-depressant (probability that activity matches class) [1] | MS: mood stabilizer (probability that activity matches class) [1] | PS: anti-psychotic (probability that activity matches class) [1] | SD: sedative hypnotic (probability that activity matches class) [1] | UN: uncharacterized CNS activity (probability that activity matches class) [1] | minimal effective dose | AD: ADHD (probability that activity matches class) [2] | AG: analgesic (probability that activity matches class) [2] | AX: anxiolytic (probability that activity matches class) [2] | CE: cognitive enhancer (probability that activity matches class) [2] | DP: anti-depressant (probability that activity matches class) [2] | MS: mood stabilizer (probability that activity matches class) [2] | PS: anti-psychotic (probability that activity matches class) [2] | SD: sedative hypnotic (probability that activity matches class) [2] | UN: uncharacterized CNS activity (probability that activity matches class) [2]
1 | CNC[C@@H]1OCCCc2c(-c3cncs3)cccc21 (single isomer, unassigned) [Compound 168, hydrochloride salt] | ≤ 3 mg/kg | ++ (5% ≤ ++ <25%) | + (LOQ ≤ + <5%) | ++ (5% ≤ ++ <25%) | + (LOQ ≤ + <5%) | ++++ (50% ≤ ++++) | + (LOQ ≤ + <5%) | + (LOQ ≤ + <5%) | ++ (5% ≤ ++ <25%) | ++ (5% ≤ ++ <25%) |  |  |  |  |  |  |  |  |  | 
2 | CNC[C@H]1OCCCc2c(-c3cncs3)cccc21 (single isomer, unassigned) [Compound 169, hydrochloride salt] | 10 to 30 mg/kg | + (LOQ ≤ + <5%) | + (LOQ ≤ + <5%) | + (LOQ ≤ + <5%) | + (LOQ ≤ + <5%) | + (LOQ ≤ + <5%) | + (LOQ ≤ + <5%) | + (LOQ ≤ + <5%) | + (LOQ ≤ + <5%) | + (LOQ ≤ + <5%) |  |  |  |  |  |  |  |  |  | 
3 | NC[C@@H]1OCCCc2c(-c3cncs3)cccc21 (single isomer, unassigned) [Compound 170, hydrochloride salt] | 3 to 10 mg/kg | + (LOQ ≤ + <5%) | + (LOQ ≤ + <5%) | ++ (5% ≤ ++ <25%) | + (LOQ ≤ + <5%) | ++ (5% ≤ ++ <25%) | + (LOQ ≤ + <5%) | + (LOQ ≤ + <5%) | ++ (5% ≤ ++ <25%) | +++ (25% ≤ +++ <50%) |  |  |  |  |  |  |  |  |  | 
4 | NC[C@H]1OCCCc2c(-c3cncs3)cccc21 (single isomer, unassigned) [Compound 171, hydrochloride salt] | 10 to 30 mg/kg | + (LOQ ≤ + <5%) | + (LOQ ≤ + <5%) | + (LOQ ≤ + <5%) | + (LOQ ≤ + <5%) | + (LOQ ≤ + <5%) | + (LOQ ≤ + <5%) | + (LOQ ≤ + <5%) | + (LOQ ≤ + <5%) | + (LOQ ≤ + <5%) |  |  |  |  |  |  |  |  |  | 
5 | c1cc(-c2ccncc2)c2c(c1)[C@H](CNC1CC1)OCC2 (single isomer, unassigned) [Compound 180, hydrochloride salt] | 3 to 10 mg/kg | + (LOQ ≤ + <5%) | + (LOQ ≤ + <5%) | ++ (5% ≤ ++ <25%) | + (LOQ ≤ + <5%) | ++ (5% ≤ ++ <25%) | + (LOQ ≤ + <5%) | + (LOQ ≤ + <5%) | + (LOQ ≤ + <5%) | ++++ (50% ≤ ++++) |  |  |  |  |  |  |  |  |  | 
6 | c1cc(-c2ccncc2)c2c(c1)[C@@H](CNC1CC1)OCC2 (single isomer, unassigned) [Compound 181, hydrochloride salt] |  |  |  |  |  |  |  |  |  |  | ≤ 3 mg/kg | ++ (5% ≤ ++ <25%) | + (LOQ ≤ + <5%) | + (LOQ ≤ + <5%) | + (LOQ ≤ + <5%) | ++++ (50% ≤ ++++) | + (LOQ ≤ + <5%) | + (LOQ ≤ + <5%) | + (LOQ ≤ + <5%) | ++ (5% ≤ ++ <25%)
7 | CNC[C@H]1OCCc2cccc(-c3cccnc3)c21 [Compound 2, (S)-N-Methyl-1-(8-(pyridin-3-yl)isochroman-1-yl)methanamine bis-hydrochloride] | > 30 mg/kg | + (LOQ ≤ + <5%) | + (LOQ ≤ + <5%) | + (LOQ ≤ + <5%) | + (LOQ ≤ + <5%) | + (LOQ ≤ + <5%) | + (LOQ ≤ + <5%) | + (LOQ ≤ + <5%) | + (LOQ ≤ + <5%) | + (LOQ ≤ + <5%) |  |  |  |  |  |  |  |  |  | 
8 | CNC[C@H]1OCCc2ccc(-c3cccnc3)cc21 [Compound 4, (S)-N-methyl-1-(7-(pyridin-3-yl)isochroman-1-yl)methanamine dihydrochloride] | 3 to 10 mg/kg | + (LOQ ≤ + <5%) | + (LOQ ≤ + <5%) | ++ (5% ≤ ++ <25%) | + (LOQ ≤ + <5%) | ++ (5% ≤ ++ <25%) | + (LOQ ≤ + <5%) | +++ (25% ≤ +++ <50%) | + (LOQ ≤ + <5%) | ++ (5% ≤ ++ <25%) |  |  |  |  |  |  |  |  |  | 
9 | CNC[C@@H]1OCCc2cc(-c3cccnc3)ccc21 [Compound 5, (R)-N-Methyl(6-(pyridin-3-yl)isochroman-1-yl)methanamine bis-hydrochloride] | 3 to 10 mg/kg | + (LOQ ≤ + <5%) | ++ (5% ≤ ++ <25%) | ++ (5% ≤ ++ <25%) | + (LOQ ≤ + <5%) | ++++ (50% ≤ ++++) | + (LOQ ≤ + <5%) | ++ (5% ≤ ++ <25%) | + (LOQ ≤ + <5%) | + (LOQ ≤ + <5%) |  |  |  |  |  |  |  |  |  | 
10 | CNC[C@H]1OCCc2cc(-c3cccnc3)ccc21 [Compound 6, (S)-N-methyl(6-(pyridin-3-yl)isochroman-1-yl)methanamine bis-hydrochloride] | 10 to 30 mg/kg | + (LOQ ≤ + <5%) | ++ (5% ≤ ++ <25%) | ++ (5% ≤ ++ <25%) | ++ (5% ≤ ++ <25%) | +++ (25% ≤ +++ <50%) | + (LOQ ≤ + <5%) | ++ (5% ≤ ++ <25%) | + (LOQ ≤ + <5%) | + (LOQ ≤ + <5%) |  |  |  |  |  |  |  |  |  | 
11 | NC[C@H]1OCCc2cc(-c3cccnc3)ccc21 [Compound 14, hydrochloride salt] | 3 to 10 mg/kg | + (LOQ ≤ + <5%) | ++ (5% ≤ ++ <25%) | ++ (5% ≤ ++ <25%) | + (LOQ ≤ + <5%) | ++++ (50% ≤ ++++) | + (LOQ ≤ + <5%) | + (LOQ ≤ + <5%) | + (LOQ ≤ + <5%) | ++ (5% ≤ ++ <25%) |  |  |  |  |  |  |  |  |  | 
